{"source": "patent US20070219159A1", "about": "“CYCLODEXTRIN COMPOSITIONS AND METHODS OF TREATING VIRAL INFECTIONS” (priority 2002, published 2007)", "key": {"Vero cells": {"tested_on": "Vero cells", "test": "Cell viability by LDH release assay", "assay_type": "cell-based", "details": "48 hours", "method": "FIG. 3 depicts the effects of ACV alone (400 μg/ml) and β-CD alone (8 mg/ml) on the viability of Vero cells as monitored by the LDH release assay after 24 hours of treatments (A); and after 48 hours of treatments (B). All data represents means+SD of two separate experiments.\nCell viability assay. Cell viability was determined fluorometrically by estimating the release of LDH into the media (Moran and Schnellman, 1996). LDH activity was based on the reduction of pyruvate to lactate. The concomitant oxidation of NADH results in a decrease in the fluorescence emission at 450 nm with excitation wavelength 355 nm, and the rate of disappearance of NADH is indicative of LDH activity.\nTo study the effects of formulations on viability of preformed monolayers, 3 to 4×10^6 Vero cells were added to 1× MEM-5% FBS in T75 flasks. […] Used media were replaced with 15 ml of treatment media, containing 5× MEM-FBS diluted to 1× with water (control), acyclovir stock (400 μg/ml), or β-CD stock (8 mg/ml in water). […]\nReaction solution was made fresh for each experiment by mixing 0.4 ml of 16.2 mM pyruvate with 10 ml of 0.2 mM NADH in phosphate buffer (pH 7.5). […] The amount of LDH calculated for either condition was then compared with and expressed as a percentage of the total LDH present.\nUsed media were replaced with 15 ml/flask or 2.5 ml/well of treatment media, containing 5× MEM-FBS diluted to 1× with water (control), and […]CD stock. […] Live cells are distinguished by the presence of intracellular esterase activity, as determined by the enzymatic conversion of calcein-AM (nonfluorescent) to calcein (green fluorescence). EthD-1 enters cells with damaged cell membranes and binds to nucleic acids producing red fluorescence to identify dead cells. […] For LDH assays, cells were trypsinized, resuspended in fresh 1× medium, kept at 37° C.-5% CO2 atmosphere, and total LDH present in cells and medium was determined after lysing the cells with 350 μM digitonin. The amount of LDH calculated for either condition was then compared with and expressed as a percentage of the total LDH present. […]"}, "HSV-2 strain MS": {"tested_on": "HSV-2 strain MS", "test": "CPE reduction assay in Vero cells, HSV-2", "assay_type": "cell-based"}}}
{"smiles": "OC[C@H]1O[C@@H]2O[C@H]3[C@H](O)[C@@H](O)[C@@H](O[C@H]4[C@H](O)[C@@H](O)[C@@H](O[C@H]5[C@H](O)[C@@H](O)[C@@H](O[C@H]6[C@H](O)[C@@H](O)[C@@H](O[C@H]7[C@H](O)[C@@H](O)[C@@H](O[C@H]8[C@H](O)[C@@H](O)[C@@H](O[C@H]1[C@H](O)[C@H]2O)O[C@@H]8CO)O[C@@H]7CO)O[C@@H]6CO)O[C@@H]5CO)O[C@@H]4CO)O[C@@H]3CO", "note": "[BCD, β-cyclodextrin]", "values": [{"measurement": "cell viability (LDH assay)", "setting": "Vero cells; 8.0 mg/ml BCD", "result": 68.57, "unit": "%"}, {"measurement": "decrease in cell viability", "setting": "Vero cells; β-CD 8 mg/ml, Vero cells", "result": "30-40%"}, {"measurement": "protection of Vero cells by inhibition of viral CPE", "setting": "HSV-2 strain MS; HSV-2, MOI 0.001 and 0.1, BCD 7-8 mg/ml", "result": "almost complete protection"}, {"measurement": "inhibition of infection, direct microscopy and crystal violet staining", "setting": "HSV-2 strain MS; HSV-2, MOI 2.0", "result": "inhibited infection"}, {"measurement": "anti-herpes effects at high multiplicity of infection", "setting": "HSV-2 strain MS; HSV-2, MOI >50, BCD 7-8 mg/ml", "result": "exhibited anti-herpes effects"}]}
